5 molecules from ChEMBL document CHEMBL1201862, “PubChem BioAssay data set” (2004) can be followed below.

Activity calls are given as the source filed them.

One assay has as its target T1, Hexokinase HKDC1 (Homo sapiens, UniProt Q2TB90).
T1 sequence (Q2TB90 whole entry): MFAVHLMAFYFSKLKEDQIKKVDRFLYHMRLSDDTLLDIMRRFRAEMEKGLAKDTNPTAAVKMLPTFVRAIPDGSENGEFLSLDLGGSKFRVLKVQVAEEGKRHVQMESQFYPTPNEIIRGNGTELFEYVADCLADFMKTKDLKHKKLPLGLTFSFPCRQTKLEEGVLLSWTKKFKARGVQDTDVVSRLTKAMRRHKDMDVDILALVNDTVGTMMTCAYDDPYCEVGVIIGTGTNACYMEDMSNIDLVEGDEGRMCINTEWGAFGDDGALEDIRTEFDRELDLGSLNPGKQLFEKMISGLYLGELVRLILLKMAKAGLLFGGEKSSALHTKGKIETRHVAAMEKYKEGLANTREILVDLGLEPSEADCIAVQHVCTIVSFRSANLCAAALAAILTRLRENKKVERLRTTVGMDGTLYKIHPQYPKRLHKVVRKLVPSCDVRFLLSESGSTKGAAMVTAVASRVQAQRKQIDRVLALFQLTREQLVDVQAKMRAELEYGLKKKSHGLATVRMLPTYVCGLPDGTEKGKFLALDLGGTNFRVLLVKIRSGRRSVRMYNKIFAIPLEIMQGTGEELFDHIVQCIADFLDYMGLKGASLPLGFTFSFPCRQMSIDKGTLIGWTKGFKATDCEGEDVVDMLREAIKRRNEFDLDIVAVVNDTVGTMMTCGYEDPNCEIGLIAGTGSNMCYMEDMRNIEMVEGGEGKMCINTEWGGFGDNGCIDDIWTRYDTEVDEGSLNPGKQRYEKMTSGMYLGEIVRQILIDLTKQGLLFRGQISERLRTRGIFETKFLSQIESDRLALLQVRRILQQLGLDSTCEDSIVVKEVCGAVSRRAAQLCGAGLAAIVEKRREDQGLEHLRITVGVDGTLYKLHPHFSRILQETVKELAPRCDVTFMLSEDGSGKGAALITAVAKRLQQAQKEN
As to the kind of experiment: inhibition of HKDC1 glucose phosphorylation – biochemical, W721R variant, dose response (AID 504729). Type of assay: functional.

A further assay deals with P388/ADR. Description: cells. Type of assay: functional. The note with it: Mus musculus.
For the next assay, the system named is SN12K1. As to the kind of experiment: cells. Type of assay: functional. The note with it: Homo sapiens.
For the next assay, the target named is Cytochrome P450 3A4 (Homo sapiens, UniProt P08684). Conditions: Potency.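 Note: confirmatory qHTS run detecting inhibitors and substrates of CYP3A4.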
For another assay, the system named is P388. Description: cells. Conditions: Mus musculus. Type of assay: functional.
Assay [1] can be described thus: alpha-synuclein stem-loop luciferase translation blockers – H4 neuroglioma cells, luminescence, confirmation (AID 1988). Type of assay: functional, cell-based.
Assay [2] relates to BJ. Description: BJ-TERT fibroblast viability loss – cell-based, RAS-independent, luminescence, dose response (AID 1933). Type of assay: functional. Conditions: Homo sapiens.
The target in a further assay is T2, Protein RecA (Mycobacterium tuberculosis, UniProt P9WHJ3).
T2 sequence (P9WHJ3 whole entry): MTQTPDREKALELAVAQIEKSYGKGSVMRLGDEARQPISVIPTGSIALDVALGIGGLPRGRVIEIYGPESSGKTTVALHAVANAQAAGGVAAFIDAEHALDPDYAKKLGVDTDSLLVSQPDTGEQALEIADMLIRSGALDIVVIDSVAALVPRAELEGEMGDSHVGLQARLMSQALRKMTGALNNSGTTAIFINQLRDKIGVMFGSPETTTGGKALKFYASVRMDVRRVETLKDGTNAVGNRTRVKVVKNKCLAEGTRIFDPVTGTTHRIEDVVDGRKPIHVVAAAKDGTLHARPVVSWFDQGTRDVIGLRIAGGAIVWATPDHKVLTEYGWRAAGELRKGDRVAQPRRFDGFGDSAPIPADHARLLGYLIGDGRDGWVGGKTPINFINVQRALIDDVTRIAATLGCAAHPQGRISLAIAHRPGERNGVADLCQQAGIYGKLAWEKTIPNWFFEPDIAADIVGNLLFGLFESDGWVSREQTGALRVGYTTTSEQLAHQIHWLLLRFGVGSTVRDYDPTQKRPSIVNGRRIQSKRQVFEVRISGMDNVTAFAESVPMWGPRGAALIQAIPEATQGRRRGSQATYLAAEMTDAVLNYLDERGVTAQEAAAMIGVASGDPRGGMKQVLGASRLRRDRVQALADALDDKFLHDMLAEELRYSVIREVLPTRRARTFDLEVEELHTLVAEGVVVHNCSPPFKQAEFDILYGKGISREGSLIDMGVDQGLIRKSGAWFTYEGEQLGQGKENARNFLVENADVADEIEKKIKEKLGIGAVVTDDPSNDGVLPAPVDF
Description: Fluorescence Cell-Free Homogeneous Dose Retest to Identify Inhibitors of RecA-Intein Splicing Activity. [Related pubchem assays (depositor defined):AID2097, AID2223, AID489010, AID492950]. Type of assay: functional.

For assay [3], the system named is BJ. Description: BJ-TERT-LT-ST fibroblast viability loss – cell-based, RAS-independent, luminescence, dose response (AID 1935).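 Note: BJ fibroblasts immortalized with TERT plus LT and ST oncogenes.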 Type of assay: functional. The note with it: Homo sapiens.
The target of assay [4] is T3, Replicative DNA helicase DnaB (Mycobacterium tuberculosis, UniProt P9WMR3).
T3 sequence (P9WMR3 whole entry): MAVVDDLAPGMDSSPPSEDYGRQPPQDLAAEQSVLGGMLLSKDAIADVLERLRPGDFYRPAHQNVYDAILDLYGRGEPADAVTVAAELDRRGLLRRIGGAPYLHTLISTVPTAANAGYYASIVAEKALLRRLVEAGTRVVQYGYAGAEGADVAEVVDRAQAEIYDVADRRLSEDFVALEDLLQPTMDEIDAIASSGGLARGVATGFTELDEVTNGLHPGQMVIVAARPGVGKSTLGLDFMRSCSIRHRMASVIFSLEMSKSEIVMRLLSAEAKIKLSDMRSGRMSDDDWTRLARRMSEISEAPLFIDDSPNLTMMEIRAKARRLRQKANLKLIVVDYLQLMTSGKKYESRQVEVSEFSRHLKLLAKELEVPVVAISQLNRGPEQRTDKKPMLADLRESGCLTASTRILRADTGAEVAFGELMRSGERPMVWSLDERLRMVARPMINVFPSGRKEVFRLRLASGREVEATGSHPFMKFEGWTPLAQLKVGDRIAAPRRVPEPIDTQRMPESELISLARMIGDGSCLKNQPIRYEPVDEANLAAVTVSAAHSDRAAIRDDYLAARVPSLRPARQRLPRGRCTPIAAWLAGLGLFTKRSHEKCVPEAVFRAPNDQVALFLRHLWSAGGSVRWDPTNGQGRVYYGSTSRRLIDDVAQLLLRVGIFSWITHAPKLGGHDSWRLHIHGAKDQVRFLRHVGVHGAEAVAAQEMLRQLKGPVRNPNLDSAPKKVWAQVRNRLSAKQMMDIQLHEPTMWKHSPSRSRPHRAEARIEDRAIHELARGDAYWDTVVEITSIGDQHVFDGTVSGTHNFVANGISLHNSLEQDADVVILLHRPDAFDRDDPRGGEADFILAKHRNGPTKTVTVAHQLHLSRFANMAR
As to the kind of experiment: DnaB intein splicing inhibitors, dose response, biochemical, cell-free fluorescence (AID 449749). Type of assay: functional.

Assay [5] can be described thus: fluconazole-exposed Candida albicans growth modulators – fluorescence, retest, confirmation (AID 2467). Type of assay: functional, cell-based.
For assay [6], the system named is BJ. Description: cells. Type of assay: functional, cell-based. The note with it: Homo sapiens.
The target of assay [7] is T4, Microphthalmia-associated transcription factor (Homo sapiens, UniProt O75030).
T4 sequence (O75030 whole entry): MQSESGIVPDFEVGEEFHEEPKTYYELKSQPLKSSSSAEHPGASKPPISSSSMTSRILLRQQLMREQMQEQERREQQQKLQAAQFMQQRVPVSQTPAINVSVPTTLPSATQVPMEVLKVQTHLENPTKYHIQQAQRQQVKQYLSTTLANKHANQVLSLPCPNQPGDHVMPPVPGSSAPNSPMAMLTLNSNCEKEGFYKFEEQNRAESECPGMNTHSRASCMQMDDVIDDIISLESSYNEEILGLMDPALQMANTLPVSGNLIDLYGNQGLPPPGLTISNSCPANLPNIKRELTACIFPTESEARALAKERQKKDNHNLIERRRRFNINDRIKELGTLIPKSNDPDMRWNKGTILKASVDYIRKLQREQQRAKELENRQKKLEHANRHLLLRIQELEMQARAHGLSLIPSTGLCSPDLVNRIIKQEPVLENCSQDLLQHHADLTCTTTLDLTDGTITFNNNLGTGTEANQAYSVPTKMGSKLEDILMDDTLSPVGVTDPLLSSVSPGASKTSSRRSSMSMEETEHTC
As to the kind of experiment: reducers of TRPM1 reporter luminescence, concentration series – cell-based, SK-MEL-5, cherry-picked, set 3, MITF inhibitor project, dose response (AID 493073).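 Note: SK-MEL-5 melanoma cells with luciferase driven by the MITF target TRPM1 promoter.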 Type of assay: functional.

A short description of assay [8]: NIH-3T3 fibroblast cytotoxicity, dose response, cytotoxicity control, cell-based, fluorescence, Alamar Blue, secondary assay (AID 2327).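 Note: NIH-3T3 mouse fibroblasts cultured with fluconazole at 8 µg/mL.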 Type of assay: functional. On the technique in general: Resazurin is reduced to fluorescent resorufin, in cell work by metabolically active cells.
Assay [9] is described as follows: DRD fibroblast viability loss – cell-based, non-viral oncogenic, luminescence, dose response (AID 1934). The note with it: Homo sapiens. Type of assay: functional.
Assay [10] in a line: luciferase reporter signal suppression in cells – H4 neuroglioma cells, luminescence, dose response (AID 1990). Type of assay: functional, cell-based. Background: A reporter such as luciferase makes a cellular process visible.
A short description of assay [11]: Luminescence Cell-Based Dose Response HTS to Identify Inhibitors of 5'UTR Stem-Loop Driven Prion Protein mRNA Translation in H4 Neuroglioblastoma Cells. [Related pubchem assays: 1827 (Project Summary), 1813 (Primary HTS)]. Type of assay: functional.
Assay [12] deals with T5, Lysosomal acid glucosylceramidase (Homo sapiens, UniProt P04062).
T5 sequence (P04062 whole entry): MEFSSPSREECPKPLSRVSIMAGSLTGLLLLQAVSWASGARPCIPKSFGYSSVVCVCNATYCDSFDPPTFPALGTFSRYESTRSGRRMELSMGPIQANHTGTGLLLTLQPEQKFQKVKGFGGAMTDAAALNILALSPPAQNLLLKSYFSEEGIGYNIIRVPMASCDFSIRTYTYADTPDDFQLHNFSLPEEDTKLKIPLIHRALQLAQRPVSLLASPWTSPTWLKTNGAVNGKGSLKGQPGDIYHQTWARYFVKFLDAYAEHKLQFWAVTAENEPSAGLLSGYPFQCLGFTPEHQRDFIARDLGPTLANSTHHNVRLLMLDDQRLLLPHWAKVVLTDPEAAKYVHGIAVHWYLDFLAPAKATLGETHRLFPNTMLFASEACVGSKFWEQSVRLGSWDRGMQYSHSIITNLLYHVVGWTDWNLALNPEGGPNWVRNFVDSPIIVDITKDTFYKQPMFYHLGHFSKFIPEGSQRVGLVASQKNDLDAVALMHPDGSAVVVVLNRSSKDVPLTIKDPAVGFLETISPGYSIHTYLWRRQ
As to the kind of experiment: Dose response cell-based high throughput screening assay to identify enhancers of beta-glucosidase activity. [Related pubchem assays: 784 ]. Type of assay: functional.

The target of assay [13] is T6, Kappa-type opioid receptor (Homo sapiens, UniProt P41145). Type of assay: functional.
Assay [14] deals with T6, Kappa-type opioid receptor. Type of assay: functional. The source holds these as a separate data set.
For the next assay, the target named is Beta-galactosidase (Escherichia coli, UniProt Q8VNN2). Type of assay: functional.
Chain of Beta-galactosidase (Q8VNN2 whole entry): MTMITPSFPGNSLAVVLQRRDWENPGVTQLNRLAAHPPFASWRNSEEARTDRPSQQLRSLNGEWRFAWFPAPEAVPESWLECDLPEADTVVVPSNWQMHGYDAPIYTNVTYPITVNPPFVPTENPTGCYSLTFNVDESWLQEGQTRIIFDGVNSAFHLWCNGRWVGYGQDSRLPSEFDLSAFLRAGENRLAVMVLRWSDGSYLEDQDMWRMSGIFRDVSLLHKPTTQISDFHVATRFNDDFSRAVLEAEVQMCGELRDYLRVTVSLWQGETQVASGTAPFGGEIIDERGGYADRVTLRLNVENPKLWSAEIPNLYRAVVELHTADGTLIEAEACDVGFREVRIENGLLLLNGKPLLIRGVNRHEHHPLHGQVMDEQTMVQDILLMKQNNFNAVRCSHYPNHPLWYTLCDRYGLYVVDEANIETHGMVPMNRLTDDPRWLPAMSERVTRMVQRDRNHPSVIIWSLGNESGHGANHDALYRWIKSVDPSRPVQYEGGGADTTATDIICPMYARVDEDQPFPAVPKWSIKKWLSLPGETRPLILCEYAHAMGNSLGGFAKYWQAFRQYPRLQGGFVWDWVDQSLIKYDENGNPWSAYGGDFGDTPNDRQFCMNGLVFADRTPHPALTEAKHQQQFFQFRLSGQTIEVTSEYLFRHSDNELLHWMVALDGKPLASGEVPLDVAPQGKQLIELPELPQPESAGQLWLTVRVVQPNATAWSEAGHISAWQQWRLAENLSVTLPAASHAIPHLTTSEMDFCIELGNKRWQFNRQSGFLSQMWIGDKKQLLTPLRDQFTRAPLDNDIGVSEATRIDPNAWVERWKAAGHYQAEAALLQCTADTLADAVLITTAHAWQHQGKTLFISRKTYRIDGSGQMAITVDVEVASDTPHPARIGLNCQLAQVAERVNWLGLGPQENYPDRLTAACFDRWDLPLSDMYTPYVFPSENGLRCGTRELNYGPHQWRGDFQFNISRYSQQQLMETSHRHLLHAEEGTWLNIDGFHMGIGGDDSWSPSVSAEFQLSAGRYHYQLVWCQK

T6 sequence (P41145 whole entry): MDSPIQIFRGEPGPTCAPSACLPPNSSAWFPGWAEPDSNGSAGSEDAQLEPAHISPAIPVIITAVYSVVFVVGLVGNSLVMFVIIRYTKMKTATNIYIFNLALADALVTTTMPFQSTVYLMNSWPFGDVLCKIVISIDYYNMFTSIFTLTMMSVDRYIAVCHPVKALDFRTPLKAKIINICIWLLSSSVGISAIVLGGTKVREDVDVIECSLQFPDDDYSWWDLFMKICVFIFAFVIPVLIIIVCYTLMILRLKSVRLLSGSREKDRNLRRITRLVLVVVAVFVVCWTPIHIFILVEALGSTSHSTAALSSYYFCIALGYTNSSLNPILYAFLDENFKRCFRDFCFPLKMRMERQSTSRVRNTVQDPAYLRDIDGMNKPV
Chain of Cytochrome P450 3A4 (P08684 whole entry): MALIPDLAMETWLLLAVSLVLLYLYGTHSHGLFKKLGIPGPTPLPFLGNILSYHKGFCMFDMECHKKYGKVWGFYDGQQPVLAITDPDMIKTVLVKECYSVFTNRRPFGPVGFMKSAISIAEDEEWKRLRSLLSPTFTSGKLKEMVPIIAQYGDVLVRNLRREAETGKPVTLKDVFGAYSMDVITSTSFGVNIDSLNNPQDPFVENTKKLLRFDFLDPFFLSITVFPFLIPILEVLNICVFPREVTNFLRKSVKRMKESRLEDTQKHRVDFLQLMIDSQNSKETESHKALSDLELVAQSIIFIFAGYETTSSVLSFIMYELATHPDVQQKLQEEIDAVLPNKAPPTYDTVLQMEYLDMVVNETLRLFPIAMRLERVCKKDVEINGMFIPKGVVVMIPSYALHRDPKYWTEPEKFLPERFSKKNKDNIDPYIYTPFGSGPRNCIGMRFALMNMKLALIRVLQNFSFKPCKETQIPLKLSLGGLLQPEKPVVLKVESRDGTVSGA

By IC50 is commonly meant the concentration needed to halve the response being measured. A word on the GI50: it is the concentration giving 50% growth inhibition. A word on the AC50: it is the concentration at which the activity in the assay is half-maximal. As to `COC1=CC(=O)C=C(OC)C1=O` [2,6-DIMETHOXYQUINONE], the 50% inhibitory concentration (IC50) on Hexokinase HKDC1 is 2.49 µM (active). Moreover, the results for the 50% growth inhibitory concentration (GI50) in the assay on P388/ADR, in the assay on SN12K1 and in the assay with P388 were 0.457 µM (active), 7.38 µM (inactive) and 0.401 µM (active), respectively. For the same molecule, at Cytochrome P450 3A4, the half-maximal activity concentration (AC50) was 25.1 µM (inconclusive).
As usually defined, the EC50 is the concentration that produces a half-maximal response. For `CCOc1ccc(-n2c(C)cc(C(=O)CCl)c2C)cc1`, the concentration giving a half-maximal response (EC50) in assay [1] was > 120 µM (not active); with BJ [2] it was 4.29 µM (active); at Protein RecA, 11.7 µM (active); in the assay with BJ [3] it was 9.67 µM (inconclusive); in [5], > 38 µM (not active); with BJ [6] it was 4.84 µM (active). The EC50 in [8] is 4.21 µM (inconclusive); in assay [9], 9.56 µM (active); in assay [10], > 120 µM (not active); in assay [11] it was 15 µM (active). The IC50 at Hexokinase HKDC1 is 47.7 µM (inactive). Further, the AC50 in [4] is 8.96 µM (active); in assay [7] it was 4.59 µM (active).
As to `O=C(CCNS(=O)(=O)c1cccc2nsnc12)NC1CCN(Cc2ccccc2)CC1`, the EC50 in assay [12] is given as > 50 µM (not active).
Consider `Oc1ccc2c3c1O[C@H]1c4oc5ccccc5c4C[C@@]4(O)[C@@H](C2)N(CC2CC2)CC[C@]314`, for which the IC50 in assay [13] was 0.699 µM (active); in [14], less than 0.5 µM. In addition, at Beta-galactosidase, the EC50 is > 31.5 µM (inactive).
For `Cc1ccccc1CS(=O)(=O)Cc1ccc(C(=O)NCc2ccco2)o1`, the half-maximal effective concentration (EC50) in [12] was > 50 µM (not active).
